Among the data in article PMC3823594, “Conformational Changes Underlying Pore Dilation in the Cytoplasmic Domain of Mammalian Inward Rectifier K^+ Channels” (PLoS ONE, 2013) are Hill coefficient values, retold here.

Numbering of substitutions follows the chain as printed.

Assay in all cases: Two-electrode voltage clamp, ACh-dependent (m2R-dependent) K+ current activation
Holding throughout (assay type): cell-based
(In general: In two-electrode clamp one electrode senses voltage and the other passes current.)

The target of one assay is T1, Kir3.2 E236D (Mus musculus, UniProt P48542, E236D).
T1 sequence (P48542 19-425 E236D): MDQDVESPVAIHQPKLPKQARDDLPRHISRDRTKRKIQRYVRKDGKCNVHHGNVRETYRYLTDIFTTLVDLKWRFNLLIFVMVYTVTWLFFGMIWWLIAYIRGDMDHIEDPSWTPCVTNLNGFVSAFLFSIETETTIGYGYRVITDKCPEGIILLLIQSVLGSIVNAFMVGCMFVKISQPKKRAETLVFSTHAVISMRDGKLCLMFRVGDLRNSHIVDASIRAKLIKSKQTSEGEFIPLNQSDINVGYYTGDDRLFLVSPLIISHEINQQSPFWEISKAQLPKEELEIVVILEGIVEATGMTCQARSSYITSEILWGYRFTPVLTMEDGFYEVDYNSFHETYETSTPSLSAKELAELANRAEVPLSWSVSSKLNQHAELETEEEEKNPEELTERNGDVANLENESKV
T1 sequence (P06199 1-466 partner): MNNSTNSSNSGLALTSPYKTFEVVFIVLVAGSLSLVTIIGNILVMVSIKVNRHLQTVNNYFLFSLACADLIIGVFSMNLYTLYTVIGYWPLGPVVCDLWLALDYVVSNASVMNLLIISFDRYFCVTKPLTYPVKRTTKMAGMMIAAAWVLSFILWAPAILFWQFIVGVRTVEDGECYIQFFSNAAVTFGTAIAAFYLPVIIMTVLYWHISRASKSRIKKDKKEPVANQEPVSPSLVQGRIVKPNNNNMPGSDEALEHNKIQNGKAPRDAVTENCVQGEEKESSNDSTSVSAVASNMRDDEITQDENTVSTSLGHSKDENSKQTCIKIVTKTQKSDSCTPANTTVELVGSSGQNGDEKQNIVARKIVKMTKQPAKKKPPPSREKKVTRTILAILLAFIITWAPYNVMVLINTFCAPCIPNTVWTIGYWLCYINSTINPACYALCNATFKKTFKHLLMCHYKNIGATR
To be noted: Kir3.2 E236D with porcine m2R in Xenopus oocytes; −120 mV; Hill equation fit. The text has this:
(§1) The mouse Kir3.2d isoform was subjected to functional analyses. The amino acid numbers correspond to the longest mouse Kir3.2 isoform. Point mutations were introduced using the QuikChange site-directed mutagenesis kit (Stratagene, La Jolla, CA), and the presence of the mutations was confirmed by direct DNA sequencing. The care of Xenopus laevis was in accordance with the guideline of the Institute of Experimental Animal Sciences, Osaka University. The protocol was approved by the Animal Experiment Committee of Osaka University. The frogs were deeply anesthetized by immersing in 0.2% tricaine methanesulfonate for 20 min at 18°C. A portion of an ovary lobe was surgically removed and incubated with collagenase to remove follicular cells. The oocytes were injected with the cRNAs of Kir3.2 and porcine m2-muscarinic receptor (m2R), and maintained in modified Barth’s solution at 18°C with daily solution changes. Electrophysiological studies were undertaken 48–72 h later at room temperature (20–25°C). Two-electrode voltage-clamp recordings from oocytes were performed using a GeneClamp 500B amplifier (Axon Instruments, Sunnyvale, CA). […] The bath solution contained 40 mM KCl, 50 mM NaCl, 3 mM MgCl2, 0.15 mM niflumic acid, and 5 mM HEPES-KOH (pH 7.4). The currents were recorded in the absence or presence of various concentrations of acetylcholine (ACh). Ba^2+ (3 mM) was added at the end of the recording to estimate the endogenous leak current. The data are expressed as mean values ± standard error of the mean. For the quantitative estimation of ACh-dependent current responses of the wild-type (WT) and mutant channels, the current amplitudes at the end of test pulses at each ACh concentration ([ACh]) were fitted using the following equation:
(§2) I=min+[(max−min)/(1+(EC50/[ACh])^nH)]
(§3) where I is the current amplitude measured at the [ACh], n H is the Hill coefficient, and EC50 is the concentration that induces 50% of the maximal response. […] The values of n H and EC50 were calculated using a non-linear least-squares best fit (SigmaPlot 9; Systat Software). Statistical analyses were performed by one-way ANOVA with post-hoc tests.

For a further assay, the target named is T2, Kir3.2 E236G (Mus musculus, UniProt P48542, E236G).
T2 sequence (P48542 19-425 E236G): T1 sequence (P48542 19-425 E236D) with D218G
T2 sequence (P06199 1-466 partner): T1 sequence (P06199 1-466 partner)
To be noted: Kir3.2 E236G with porcine m2R in Xenopus oocytes; −120 mV; Hill equation fit.
Source text: as §1, §2, §3

A further assay deals with T3, Kir3.2 M313A (Mus musculus, UniProt P48542, I313A).
T3 sequence (P48542 19-425 I313A): T1 sequence (P48542 19-425 E236D) with D218E, I295A
T3 sequence (P06199 1-466 partner): T1 sequence (P06199 1-466 partner)
To be noted: Kir3.2 M313A with porcine m2R in Xenopus oocytes; −120 mV; Hill equation fit.
Source text: as §1, §2, §3

`CC(=O)OCC[N+](C)(C)C` [ACh, acetylcholine]: the Hill coefficient (commonly the slope factor of the fitted curve) is reported as 0.74 ± 0.07 on Kir3.2 E236D, 1.10 ± 0.04 at Kir3.2 E236G and 1.05 ± 0.08 at Kir3.2 M313A.
